The record followed here is patent publication US6706740B2, “Fungicidal heterocyclic aromatic amides and their compositions, methods of use and preparation” (Dow AgroSciences LLC, priority 1999, dated 2004).

The test system of assay [1] is Rhizoctonia solani (RHIZSO). In words: microbe, parasite or virus in culture. Type of assay: cell-based. The following applies: Rhizoctonia solani, read-out: RHIZSO in vitro Growth Inhibition.
Assay [2] relates to Phytophthora infestans—PHYTIN. In words: whole plant or invertebrate. In kind it is in vivo. Particulars: Phytophthora, in Solanum lycopersicum, 24 h, read-out: PHYTIN in vivo 1 Day Protectant.
The test system of another assay is Ustilago maydis (USTIMA). The assay is described as follows: microbe, parasite or virus in culture. Particulars: Mycosarcoma maydis, read-out: USTIMA in vitro Growth Inhibition. In kind it is cell-based.
The subject of assay [3] is Phytophthora infestans (PHYTIN). The assay is described as follows: microbe, parasite or virus in culture. In kind it is cell-based. Particulars: Phytophthora infestans, read-out: PHYTIN in vitro Growth Inhibition.
Another assay concerns Erysiphe graminis—ERYSGT. The assay is described as follows: Powdery Mildew of Wheat, in vivo whole plant, 24 Hour Protectant. The following applies: Erysiphe, read-out: ERYSGT in vivo 1 Day Protectant.
Assay [4] deals with Stagonospora nodorum (Leptosphaeria nodorum—LEPTNO). The assay is described as follows: In vitro fungal growth inhibition, Stagonospora nodorum (LEPTNO). Type of assay: cell-based. Particulars: Leptosphaeria, read-out: LEPTNO in vitro Growth Inhibition.
The test system of assay [5] is Puccinia recondita—PUCCRT. The assay is described as follows: Brown Rust of Wheat, in vivo whole plant, 24 Hour Protectant. Particulars: for pest or weed control at 100 ppm: Puccinia, control of fungal infection vs untreated plants, read-out: PUCCRT in vivo 1 Day Protectant.
For assay [6], the system named is Magnaporthe grisea (Pyricularia oryzae—PYRIOR). In words: microbe, parasite or virus in culture. In kind it is cell-based. The following applies: Pyricularia oryzae, read-out: PYRIOR in vitro Growth Inhibition.
Assay [7] deals with Mycosphaerella graminicola (Septoria tritici—SEPTTR). In words: In vitro fungal growth inhibition, Mycosphaerella graminicola (SEPTTR). Type of assay: cell-based. The following applies: Zymoseptoria tritici, read-out: SEPTTR in vitro Growth Inhibition.
For the next assay, the system named is Septoria tritici—SEPTTR. The assay is described as follows: Leaf Blotch of Wheat, in vivo whole plant, 24 Hour Protectant. The following applies: for pest or weed control at 100 ppm: Zymoseptoria tritici, 24 h, read-out: SEPTTR in vivo 1 Day Protectant.
Assay [8] deals with Leptosphaeria nodorum—LEPTNO. In words: Glume Blotch of Wheat, in vivo whole plant, 24 Hour Protectant. The following applies: for pest or weed control at 100 ppm: Leptosphaeria, read-out: LEPTNO in vivo 1 Day Protectant.
Setting [9] is: 100 ppm spray, 24 hour protectant, wheat, control of fungal infection vs untreated plants.
The mark [10] stands for this setting: 100 ppm spray, 24 hour protectant, wheat.
The mark [11] stands for this setting: wheat plants sprayed at 100 ppm, inoculated after 24 hours, control of fungal infection vs untreated plants.
Where [12] appears, read: wheat plants sprayed at 100 ppm, inoculated after 24 hours.
Setting [13] is: 100 ppm spray, wheat, 24 hour protectant, control of fungal infection vs untreated plants.
Where [14] appears, read: 100 ppm spray, wheat, 24 hour protectant.
[15] abbreviates: 100 ppm spray, wheat, 24 hour protectant, % control of fungal infection vs untreated plants.

Like-named read-outs stand apart in the source and are kept apart here. Bounds are passed on as bounds.

Turning to `O=C(N[C@H]1CC2CC1[C@@H]1CCC[C@H]21)c1ncccc1O` (stereo partly drawn) [Compound 206], the inhibition at 25 ppm is above 80% in assay [1]; below 80% in the assay on Ustilago maydis (USTIMA); below 80% in assay [3]; above 80% in assay [4] (25 ppm in growth medium); above 80% in [6]; above 80% in assay [7] (25 ppm in growth medium). Also, the pest or weed control at 100 ppm (in [2]; with Erysiphe graminis—ERYSGT (setting [9]); in assay [5] (setting [10]); with Septoria tritici—SEPTTR (setting [9]); in [8] (setting [9])) was below 25% each time.
For `COc1ccnc(C(=O)NC2CC(C)(C)CCCC2C)c1O` (stereo not drawn) [Compound 277], the inhibition at 25 ppm is below 80% in [1]; below 80% with Ustilago maydis (USTIMA); below 80% in [3]; above 80% in assay [4] (25 ppm in growth medium); below 80% in [6]; above 80% in assay [7] (25 ppm in growth medium). The pest or weed control at 100 ppm was below 25% in assay [2], below 25% in the assay with Erysiphe graminis—ERYSGT (setting [9]), below 25% in assay [5] (setting [10]) and 25 to 74% in assay [8] (setting [9]). The “SEPTTR in vivo 1 Day Protectant” value in the assay on Septoria tritici—SEPTTR (setting [9]) was “+ +”.
As to `CC(NC(=O)c1nc(Br)ccc1O)c1ccc(Oc2ccccc2)cc1` (stereo not drawn) [Compound 490], the inhibition at 25 ppm (in assay [1]; with Ustilago maydis (USTIMA); in [3]; in [4] (25 ppm in the growth medium); in assay [6]; in assay [7] (25 ppm in the growth medium)) was below 80% throughout. Besides, the pest or weed control at 100 ppm was below 25% in assay [2]; below 25% in the assay with Erysiphe graminis—ERYSGT (setting [11]); 25 to 74% in [5] (setting [12]); 25 to 74% with Septoria tritici—SEPTTR (setting [11]); below 25% in [8] (setting [11]).
On to `O=C(NCCCCc1ccccc1)c1ncccc1O` [Compound 234], for which the inhibition at 25 ppm in assay [1] was below 80%; with Ustilago maydis (USTIMA), below 80%; in [3] it was above 80%; in assay [4] (25 ppm in growth medium) it was above 80%; in [6] it was above 80%; in assay [7] (25 ppm in growth medium), below 80%. For the same molecule, the pest or weed control at 100 ppm in assay [2] was below 25%; in the assay on Erysiphe graminis—ERYSGT (setting [9]), below 25%; in [5] (setting [10]) it was below 25%; in the assay with Septoria tritici—SEPTTR (setting [9]) it was 25 to 74%; in assay [8] (setting [9]), below 25%.
For the molecule `O=C(Nc1cccc(C(F)(F)F)c1)c1ncccc1O` [Compound 214], the inhibition at 25 ppm (in assay [1]; in the assay with Ustilago maydis (USTIMA); in assay [3]; in assay [4] (25 ppm in growth medium); in assay [6]; in [7] (25 ppm in growth medium)) was below 80% throughout. The pest or weed control at 100 ppm (in [2]; in the assay on Erysiphe graminis—ERYSGT (setting [9]); in assay [5] (setting [10]); with Septoria tritici—SEPTTR (setting [9]); in assay [8] (setting [9])) was below 25% throughout.
With `COC(=O)C(CO)NC(=O)c1nccc(OC)c1O` (stereo not drawn) [Compound 340], the inhibition at 25 ppm (in assay [1]; with Ustilago maydis (USTIMA); in assay [3]; in assay [4] (25 ppm in growth medium); in [6]; in assay [7] (25 ppm in growth medium)) was below 80% throughout. For the same molecule, the pest or weed control at 100 ppm is below 25% in assay [2]; 25 to 74% with Erysiphe graminis—ERYSGT (setting [13]); below 25% in [5] (setting [14]); below 25% in the assay with Septoria tritici—SEPTTR (setting [13]); 25 to 74% in [8] (setting [13]).
`COc1ccc(O)c(C(=O)NC2COC(=O)[C@H](Cc3ccccc3)[C@@H](OC(=O)C(C)C)[C@H](C)OC2=O)n1` (stereo partly drawn) [Compound 481]: the inhibition at 25 ppm (in [1]; in the assay with Ustilago maydis (USTIMA); in [3]; in assay [4] (25 ppm in the growth medium); in [6]; in assay [7] (25 ppm in the growth medium)) was below 80% in each case. For the same molecule, the pest or weed control at 100 ppm in [2] is below 25%; in the assay on Erysiphe graminis—ERYSGT (setting [11]), below 25%; in assay [5] (setting [12]), below 25%; in the assay with Septoria tritici—SEPTTR (setting [11]) it was 25 to 74%; in assay [8] (setting [11]) it was 25 to 74%.
With `COc1ccnc(C(=O)NC(COC(=O)C(Cc2ccccc2)C(C)OC(=O)c2ccccc2)C(=O)OC(C)C)c1O` (stereo not drawn) [Compound 356], the inhibition at 25 ppm (in [1]; in the assay with Ustilago maydis (USTIMA); in [3]; in [4] (25 ppm in growth medium); in [6]; in assay [7] (25 ppm in growth medium)) was below 80% throughout. In addition, the pest or weed control at 100 ppm in [2] was below 25%; in the assay on Erysiphe graminis—ERYSGT (setting [13]), below 25%; in assay [5] (setting [14]) it was 25 to 74%; with Septoria tritici—SEPTTR (setting [13]), 25 to 74%; in [8] (setting [13]) it was 25 to 74%.
Consider `COc1ccnc(C(=O)N[C@H]2COC(=O)[C@H](Cc3ccccc3)[C@@H](OC(=O)C(C)C)[C@H](C)OC2=O)c1OC(=O)c1ccc(F)c(F)c1` [Compound 639], for which the inhibition at 25 ppm in assay [1] is below 80%; in the assay with Ustilago maydis (USTIMA), below 80%; in [3], below 80%; in assay [4] (25 ppm in growth medium), above 80%; in assay [6], below 80%; in assay [7] (25 ppm in growth medium), below 80%. Further, the pest or weed control at 100 ppm (in assay [2]; in the assay on Erysiphe graminis—ERYSGT (setting [15])) was below 25% throughout. Moreover, the “PUCCRT in vivo 1 Day Protectant” value in assay [5] (setting [15]) is reported as “+ +”. For the same molecule, the “SEPTTR in vivo 1 Day Protectant” value in the assay with Septoria tritici—SEPTTR (setting [15]) was “+ +”. Besides, the “LEPTNO in vivo 1 Day Protectant” value in assay [8] (setting [15]) was “+ +”.
In the case of `COc1ccnc(C(=O)NC2CC(C(F)(F)F)CC(C(F)(F)F)C2)c1O` (stereo not drawn) [Compound 256], the inhibition at 25 ppm (in assay [1]; in the assay with Ustilago maydis (USTIMA); in [3]; in assay [4] (25 ppm in growth medium); in assay [6]; in [7] (25 ppm in growth medium)) was below 80% throughout. Also, the pest or weed control at 100 ppm in assay [2] was below 25%; in the assay with Erysiphe graminis—ERYSGT (setting [9]) it was 25 to 74%; in [5] (setting [10]), 25 to 74%; with Septoria tritici—SEPTTR (setting [9]), 25 to 74%; in [8] (setting [9]), 25 to 74%.
For the molecule `CC(C)C(=O)O[C@H]1[C@H](C)OC(=O)[C@@H](NC(=O)c2nccnc2O)COC(=O)[C@@H]1Cc1ccccc1` [Compound 534], the inhibition at 25 ppm in [1] was below 80%; in the assay with Ustilago maydis (USTIMA) it was below 80%; in assay [3], above 80%; in [4] (25 ppm in the growth medium) it was above 80%; in assay [6] it was above 80%; in assay [7] (25 ppm in the growth medium), above 80%. For the same molecule, the pest or weed control at 100 ppm in [2] was below 25%; in the assay on Erysiphe graminis—ERYSGT (setting [11]), below 25%; in [5] (setting [12]) it was 25 to 74%; in the assay with Septoria tritici—SEPTTR (setting [11]), 25 to 74%. For the same molecule, in assay [8] (setting [11]), the “LEPTNO in vivo 1 Day Protectant” value was “+ +”.
For `C[C@H](NC(=O)c1ncccc1O)c1cccc2ccccc12` [Compound 232], the inhibition at 25 ppm in assay [1] was below 80%; in the assay on Ustilago maydis (USTIMA), below 80%; in [3], below 80%; in [4] (25 ppm in growth medium), below 80%; in assay [6], above 80%; in assay [7] (25 ppm in growth medium) it was above 80%. Moreover, the pest or weed control at 100 ppm in assay [2] is below 25%; in the assay on Erysiphe graminis—ERYSGT (setting [9]) it was 25 to 74%; in [5] (setting [10]), below 25%; with Septoria tritici—SEPTTR (setting [9]) it was below 25%; in assay [8] (setting [9]), below 25%.

One may read the inhibition as the drop in the measured response relative to a control, in per cent.
